Reference: patent US4206215A, “Antimicrobial bis-[4-(substituted-amino)-1-pyridinium]alkanes” (Sterling Drug Inc., priority 1977, dated 1980)
Where two headings read alike, the source gives them in different places.

Key:
S. Aureus Smith = assay: In vitro antibacterial activity, MIC (modified Autotiter method); assay type: cell-based, Staphylococcus aureus; conditions: 18-20 hours at 37° C.
In short: (§1)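 Steps: prepare compound at 1,000 mcg./ml.; load first cup; instrument transfers and halves concentration serially into sterile water; inoculated double-strength semisynthetic glucose medium added to every cup. Final concentrations 500 to 0.06 mcg./ml.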

E. coli 100/B22 = assay: as above; assay type: cell-based, Escherichia coli; conditions: 18-20 hours at 37° C.
In short: as §1

E. coli AB1932-1 = assay: as above; assay type: cell-based, Escherichia coli; conditions: 18-20 hours at 37° C.
In short: as §1

E. coli Vogel = assay: as above; assay type: cell-based, Escherichia coli; conditions: 18-20 hours at 37° C.
In short: as §1

K. pneum. 39645 = assay: as above; assay type: cell-based, Klebsiella pneumoniae; conditions: 18-20 hours at 37° C.
In short: as §1

P. mirab. MGH-1 = assay: as above; assay type: cell-based, Proteus mirabilis; conditions: 18-20 hours at 37° C.
In short: as §1

Ps. aerug. MGH-2 = assay: as above; assay type: cell-based, Pseudomonas aeruginosa; conditions: 18-20 hours at 37° C.
In short: as §1

S. pyogen. C203 = assay: as above; assay type: cell-based, Streptococcus pyogenes; conditions: 18-20 hours at 37° C.
In short: as §1

A. niger 16404 = assay: In vitro antifungal activity, MIC (modified Autotiter method); assay type: cell-based, Aspergillus niger; conditions: 18-20 hours at 37° C.
In short: as §1

C. albicans 10231 = assay: as above; assay type: cell-based, Candida albicans; conditions: 18-20 hours at 37° C.
In short: as §1

C. albicans Wisc. = assay: as above; assay type: cell-based, Candida albicans; conditions: 18-20 hours at 37° C.
In short: as §1

T. menta. 9129 = assay: as above; assay type: cell-based, Trichophyton mentagrophytes; conditions: 18-20 hours at 37° C.
In short: as §1

S. Aureus ATCC 6538 = assay: Effect of serum on bacteriostatic activity (serial tube dilution test); assay type: cell-based, Staphyloccocus aureus; conditions: for MIC: Staphylococcus aureus, ATCC6538
E. Coli ATCC 8739 = assay: as above; assay type: cell-based, Escherichia coli; conditions: for MIC: Escherichia coli, ATCC8739
In short: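 Bacteriostatic potency against Escherichia coli ATCC 8739 was measured with the standard serial tube dilution test. Minimum inhibitory concentrations were determined in pairs, with the test medium either lacking serum or containing 40% horse serum heat-inactivated at 56° C. for 30 min. Serum impact was reported as the fold increase in MIC (mcg./ml.).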

[1] = system: Streptococcus mutans OMZ-61; assay: Dental plaque-preventive effectiveness in the presence of sterile human saliva (50%); assay type: cell-based; conditions: 50% sterile human saliva
Procedure: The dental plaque preventive activity of certain of the compounds of the present invention was determined by measuring the ability of these compounds to inhibit the production of dental plaque by Streptococcus mutans OMZ-61 as follows:
A culture medium for the plaque-producing Streptococcus mutans OMZ-61 containing 1.5 g. of BBL beef extract, 5 g. of sodium chloride, 10 g. of dehydrated trypticase, 5 g. of sucrose and sufficient distilled water to give a total volume of 1000 ml. is adjusted to pH 7.0 and sterilized by membrane filtration. The medium is dispensed aseptically in 10-ml. aliquots into 150×16 mm. test tubes and stored at refrigeration temperature until used.
Two concentrations of the compound to be tested are prepared by dissolving 100 mg. of the compound in 1 ml. of distilled water with the aid of sufficient 0.1 N sodium hydroxide, 10% dimethylsulfoxide or 10% N,N-dimethylformamide and diluting the resulting solution to 10 ml. with distilled water. This 1.0% solution and a 1:10 dilution in distilled water (0.1%) are sterilized by membrane filtration before use.
A sterile piece of plaque-free natural tooth enamel or synthetic hydroxylapatite is suspended in each concentration of compound for two 1-minute periods, each followed by a 1-minute air drying period. Each piece is then suspended and agitated for 5 minutes in individual test tubes containing sterile distilled water (rinse). They are then suspended in 10 ml. of liquid beef extract medium to which has been added 0.3 ml. of a 24-hr. anaerobic culture of Streptococcus mutans. The tubes containing the "treated" hydroxylapatite and the Streptococcus mutans are then incubated anaerobically at 37° C. for 24 hours. The same process of two 1-minute soaks in the solution of compound, each followed by 1 minute of air drying and the final 5-minute rinse is repeated before once again suspending the hydroxylapatite in a fresh tube containing 10 ml. of beef extract medium and 0.3 ml. of inoculum. At the end of the second 24-hour period, each piece of hydroxylapatite is rinsed for 1 minute in 3 successive tubes of distilled water. These are then suspended for 1 minute in a solution of F, D & C Red No. 3 dye. This staining procedure is used in order to identify more easily the development of plaque after the 48-hour period of exposure to the plaque-producing organism. The staining period is followed by another 10-second rinse to remove excess dye. Any plaque formation stains a brilliant pink. […] Active compounds are tested at successively lower doses in order to determine the minimum effective concentration. On some occasions, the interference of plaque production is caused by the inhibition of growth of the organism in the culture medium because the compound has been leached from the hydroxylapatite to produce an antibacterial level in the medium. When this occurs, the compound is tested at lower concentrations until the growth of the organism in the surrounding medium is equal to that in the nonmedicated control culture. Plaque may or may not be formed at these lower concentrations.
Dental plaque-preventive effectiveness in the presence of sterile human saliva (50%) was determined for representative examples.

[2] = system: Herpes simplex type 2 virus; assay: Virucidal activity in vitro (plaque inhibition test); assay type: cell-based; conditions: 2 mg. of test compound on growth medium
Procedure: Virucidal activity of representative examples against Herpes simplex type 2 virus was determined in vitro employing a procedure similar to the plaque inhibition test for detection of specific inhibitors of DNA-containing viruses published by E. C. Herrmann, Jr., Proc. Soc. Exp. Biol. Med. 107, 142 (1961) wherein 2 mg. of the test compound was placed on the surface of the growth medium.

[3] = Acute oral toxicity (ALD50); assay type: in vivo; conditions: mouse, in vivo, po, mice, suspension in 1% gum tragacanth; read-out: 7-Day ALD50
Procedure: (§2) The acute oral toxicity (ALD50) of several representative examples was determined as follows: Groups of 3 young adult male Swiss-Webster strain albino mice were fasted approximately 4 hours before medication and then medicated once orally by stomach tube.

[4] = system: young adult male Swiss-Webster strain albino mice; assay: Acute oral toxicity (ALD50); assay type: in vivo; conditions: suspension in 1% G.T.
Procedure: as §2

[5] = 25 mg/kg (so in the source) oral

SMILES: CCCCCCCCNc1cc[n+](CCCCCCCCCC[n+]2ccc(NCCCCCCCC)cc2)cc1 [Example 9D, 1,10-bis-[4-(octylamino)-1-pyridinium]decane dibromide]
- MIC S. Aureus Smith (S. Aureus Smith): 0.5 mg/L
- MIC E. coli 100/B22 (E. coli 100/B22): 1.95 mg/L
- MIC E. coli AB1932-1 (E. coli AB1932-1): 1.0 mg/L
- MIC E. coli Vogel (E. coli Vogel): 1.95 mg/L
- MIC K. pneum. 39645 (K. pneum. 39645): 3.9 mg/L
- MIC P. mirab. MGH-1 (P. mirab. MGH-1): 3.9 mg/L
- MIC Ps. aerug. MGH-2 (Ps. aerug. MGH-2): 3.9 mg/L
- MIC S. pyogen. C203 (S. pyogen. C203): 0.5 mg/L
- MIC A. niger 16404 (A. niger 16404): 1.95 mg/L
- MIC C. albicans 10231 (C. albicans 10231): 1.0 mg/L
- MIC C. albicans Wisc. (C. albicans Wisc.): 1.0 mg/L
- MIC T. menta. 9129 (T. menta. 9129): 1.0 mg/L
- Fold Increase in MIC S. Aureus ATCC 6538 (S. Aureus ATCC 6538; 40% vs 0% horse serum): 16 fold
- MIC (S. Aureus ATCC 6538; 40% heat inactivated horse serum, read-out: MIC S. Aureus ATCC 6538 40% Serum): 7.8 mg/L
- MIC (S. Aureus ATCC 6538; read-out: MIC S. Aureus ATCC 6538 0% Serum): 0.5 mg/L
- Fold Increase in MIC E. Coli ATCC 8739 (E. Coli ATCC 8739; 40% vs 0% horse serum): 64 fold
- MIC (E. Coli ATCC 8739; 40% heat inactivated horse serum, read-out: MIC E. Coli ATCC 8739 40% Serum): 62.5 mg/L
- MIC (E. Coli ATCC 8739; read-out: MIC E. Coli ATCC 8739 0% Serum): 1 mg/L
- Dental Plaque Preventive Activity in 50% saliva Minimum Effective Conc. (%) [1]: Ca. 0.005%
- Virucidal activity against Herpes simplex type 2 virus [2]: active
- LD50 at 168 h [3]: > 1000 mg/kg
- Mortality 7 Days [4, 5]: 0/3
- Mortality 24 Hrs [4, 5]: 0/3
- Mortality 7 Days ([4]; 250 mg/kg oral): 0/3
- Mortality 24 Hrs ([4]; 250 mg/kg oral): 0/3
- Mortality 7 Days ([4]; 500 mg/kg oral): 0/3
- Mortality 24 Hrs ([4]; 500 mg/kg oral): 0/3
- Mortality 7 Days ([4]; 1000 mg/kg oral): 0/3
- Mortality 24 Hrs ([4]; 1000 mg/kg oral): 0/3
